Test system: HL-60
Experiment: cell viability (% survival relative to DMSO control, bortezomib = 0%); higher = less cytotoxic
Settings: 100 nM; 72 h
Outline: (§1)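 Percent survival figures are means of duplicate wells. They were obtained by CellTiter-Glo luminescence after 10 AML and 5 CML cell lines spent 72 h at 37 °C with 5% CO2 in 384-well plates with compounds at 1, 10, 100, 1000 or 10000 nM. Vehicle was set to 100% and a 10 µM positive control to 0%.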

Structure (SMILES) | cell viability [%]
NCCCC(N)(C(=O)O)C(F)F (stereo unspecified) [Difluoromethylornithine] | 98.7

Same assay, conditions: 1000 nM; 72 h

Structure (SMILES) | cell viability [%]
COc1ccc(S(=O)(=O)N2CCN(S(=O)(=O)c3ccc4c(c3)OCCO4)CC2)cc1 [BML283] | 120
O=c1cc(-c2ccccc2)oc2cc(O)c(O)c(O)c12 [Baicalein] | 85.3
COC(=O)[C@]12CCC(C)(C)C[C@H]1[C@H]1C(=O)C=C3[C@@]4(C)C=C(C#N)C(=O)C(C)(C)[C@@H]4CC[C@@]3(C)[C@]1(C)CC2 [Bardoxolone methyl] | 93.6
O=c1oc2c(O)c(O)cc3c(=O)oc4c(O)c(O)cc1c4c23 [Benzoaric Acid] | 92
Cc1c(-c2ccc(-c3ccccc3F)cc2)nc2ccc(F)cc2c1C(=O)O [Brequinar] | 82.7
O=C1O/C(=C/Br)CCC1c1cccc2ccccc12 (stereo unspecified) [Bromoenol Lactone] | 90.7
O=C(O)CCCCC(CCSCc1ccccc1)SCc1ccccc1 (stereo unspecified) [CPI-613] | 87.9
CC(C)c1cc2c(c(O)c1O)[C@@]1(C(=O)O)CCCC(C)(C)[C@@H]1CC2 [Carnosic acid] | 91.5
CCN(CC)CCCC(C)Nc1ccnc2cc(Cl)ccc12 (stereo unspecified) [Chloroquine] | 101
Nc1nc(Cl)nc2c1ncn2[C@H]1C[C@H](O)[C@@H](CO)O1 [Cladribine] | 1.62
NCCCC(N)(C(=O)O)C(F)F (stereo unspecified) [Difluoromethylornithine] | 88.8

Same assay, conditions: 10000 nM; 72 h

Structure (SMILES) | cell viability [%]
COc1ccc(S(=O)(=O)N2CCN(S(=O)(=O)c3ccc4c(c3)OCCO4)CC2)cc1 [BML283] | 99.9
O=c1cc(-c2ccccc2)oc2cc(O)c(O)c(O)c12 [Baicalein] | 43
COC(=O)[C@]12CCC(C)(C)C[C@H]1[C@H]1C(=O)C=C3[C@@]4(C)C=C(C#N)C(=O)C(C)(C)[C@@H]4CC[C@@]3(C)[C@]1(C)CC2 [Bardoxolone methyl] | 94.2
O=c1oc2c(O)c(O)cc3c(=O)oc4c(O)c(O)cc1c4c23 [Benzoaric Acid] | 102
Cc1c(-c2ccc(-c3ccccc3F)cc2)nc2ccc(F)cc2c1C(=O)O [Brequinar] | 50
O=C1O/C(=C/Br)CCC1c1cccc2ccccc12 (stereo unspecified) [Bromoenol Lactone] | 77.2
O=C(O)CCCCC(CCSCc1ccccc1)SCc1ccccc1 (stereo unspecified) [CPI-613] | 101
CC(C)c1cc2c(c(O)c1O)[C@@]1(C(=O)O)CCCC(C)(C)[C@@H]1CC2 [Carnosic acid] | 109
CCN(CC)CCCC(C)Nc1ccnc2cc(Cl)ccc12 (stereo unspecified) [Chloroquine] | 76.4
Nc1nc(Cl)nc2c1ncn2[C@H]1C[C@H](O)[C@@H](CO)O1 [Cladribine] | -0.177
NCCCC(N)(C(=O)O)C(F)F (stereo unspecified) [Difluoromethylornithine] | 99.5

Test system: MOLM-13
Experiment: as above
Settings: 1 nM; 72 h
Outline: as §1

Structure (SMILES) | cell viability [%]
COc1ccc(S(=O)(=O)N2CCN(S(=O)(=O)c3ccc4c(c3)OCCO4)CC2)cc1 [BML283] | 96.4
O=c1cc(-c2ccccc2)oc2cc(O)c(O)c(O)c12 [Baicalein] | 97.4
COC(=O)[C@]12CCC(C)(C)C[C@H]1[C@H]1C(=O)C=C3[C@@]4(C)C=C(C#N)C(=O)C(C)(C)[C@@H]4CC[C@@]3(C)[C@]1(C)CC2 [Bardoxolone methyl] | 107
O=c1oc2c(O)c(O)cc3c(=O)oc4c(O)c(O)cc1c4c23 [Benzoaric Acid] | 92.9
Cc1c(-c2ccc(-c3ccccc3F)cc2)nc2ccc(F)cc2c1C(=O)O [Brequinar] | 80.9
O=C1O/C(=C/Br)CCC1c1cccc2ccccc12 (stereo unspecified) [Bromoenol Lactone] | 96.5
O=C(O)CCCCC(CCSCc1ccccc1)SCc1ccccc1 (stereo unspecified) [CPI-613] | 93.6
CC(C)c1cc2c(c(O)c1O)[C@@]1(C(=O)O)CCCC(C)(C)[C@@H]1CC2 [Carnosic acid] | 101
CCN(CC)CCCC(C)Nc1ccnc2cc(Cl)ccc12 (stereo unspecified) [Chloroquine] | 103
Nc1nc(Cl)nc2c1ncn2[C@H]1C[C@H](O)[C@@H](CO)O1 [Cladribine] | 100
NCCCC(N)(C(=O)O)C(F)F (stereo unspecified) [Difluoromethylornithine] | 87.2

Same assay, conditions: 10 nM; 72 h

Structure (SMILES) | cell viability [%]
COc1ccc(S(=O)(=O)N2CCN(S(=O)(=O)c3ccc4c(c3)OCCO4)CC2)cc1 [BML283] | 81.7
O=c1cc(-c2ccccc2)oc2cc(O)c(O)c(O)c12 [Baicalein] | 72
COC(=O)[C@]12CCC(C)(C)C[C@H]1[C@H]1C(=O)C=C3[C@@]4(C)C=C(C#N)C(=O)C(C)(C)[C@@H]4CC[C@@]3(C)[C@]1(C)CC2 [Bardoxolone methyl] | 81.7
O=c1oc2c(O)c(O)cc3c(=O)oc4c(O)c(O)cc1c4c23 [Benzoaric Acid] | 99.6
Cc1c(-c2ccc(-c3ccccc3F)cc2)nc2ccc(F)cc2c1C(=O)O [Brequinar] | 84.4
O=C1O/C(=C/Br)CCC1c1cccc2ccccc12 (stereo unspecified) [Bromoenol Lactone] | 94
O=C(O)CCCCC(CCSCc1ccccc1)SCc1ccccc1 (stereo unspecified) [CPI-613] | 99
CC(C)c1cc2c(c(O)c1O)[C@@]1(C(=O)O)CCCC(C)(C)[C@@H]1CC2 [Carnosic acid] | 120
CCN(CC)CCCC(C)Nc1ccnc2cc(Cl)ccc12 (stereo unspecified) [Chloroquine] | 81.8
Nc1nc(Cl)nc2c1ncn2[C@H]1C[C@H](O)[C@@H](CO)O1 [Cladribine] | 87.2
NCCCC(N)(C(=O)O)C(F)F (stereo unspecified) [Difluoromethylornithine] | 103

Same assay, conditions: 100 nM; 72 h

Structure (SMILES) | cell viability [%]
COc1ccc(S(=O)(=O)N2CCN(S(=O)(=O)c3ccc4c(c3)OCCO4)CC2)cc1 [BML283] | 100
O=c1cc(-c2ccccc2)oc2cc(O)c(O)c(O)c12 [Baicalein] | 132
COC(=O)[C@]12CCC(C)(C)C[C@H]1[C@H]1C(=O)C=C3[C@@]4(C)C=C(C#N)C(=O)C(C)(C)[C@@H]4CC[C@@]3(C)[C@]1(C)CC2 [Bardoxolone methyl] | 118
O=c1oc2c(O)c(O)cc3c(=O)oc4c(O)c(O)cc1c4c23 [Benzoaric Acid] | 96
Cc1c(-c2ccc(-c3ccccc3F)cc2)nc2ccc(F)cc2c1C(=O)O [Brequinar] | 85.3
O=C1O/C(=C/Br)CCC1c1cccc2ccccc12 (stereo unspecified) [Bromoenol Lactone] | 112
O=C(O)CCCCC(CCSCc1ccccc1)SCc1ccccc1 (stereo unspecified) [CPI-613] | 98.5
CC(C)c1cc2c(c(O)c1O)[C@@]1(C(=O)O)CCCC(C)(C)[C@@H]1CC2 [Carnosic acid] | 84.7
CCN(CC)CCCC(C)Nc1ccnc2cc(Cl)ccc12 (stereo unspecified) [Chloroquine] | 112
Nc1nc(Cl)nc2c1ncn2[C@H]1C[C@H](O)[C@@H](CO)O1 [Cladribine] | 4.48
NCCCC(N)(C(=O)O)C(F)F (stereo unspecified) [Difluoromethylornithine] | 93.3

Same assay, conditions: 1000 nM; 72 h

Structure (SMILES) | cell viability [%]
COc1ccc(S(=O)(=O)N2CCN(S(=O)(=O)c3ccc4c(c3)OCCO4)CC2)cc1 [BML283] | 113
O=c1cc(-c2ccccc2)oc2cc(O)c(O)c(O)c12 [Baicalein] | 92.1
COC(=O)[C@]12CCC(C)(C)C[C@H]1[C@H]1C(=O)C=C3[C@@]4(C)C=C(C#N)C(=O)C(C)(C)[C@@H]4CC[C@@]3(C)[C@]1(C)CC2 [Bardoxolone methyl] | 91.9
O=c1oc2c(O)c(O)cc3c(=O)oc4c(O)c(O)cc1c4c23 [Benzoaric Acid] | 92.9
Cc1c(-c2ccc(-c3ccccc3F)cc2)nc2ccc(F)cc2c1C(=O)O [Brequinar] | 95.9

From the supplement of paper PMC8671470
